IC50 and melting point data for 15 compounds are collected here from US6960575B2, “Thiazine derivatives” (Santen Pharmaceutical Co., Ltd., priority 1999, dated 2005).

The target of series [1] is T1, chymase extracted from a dog cardiac tissue (Canis lupus familiaris, UniProt P21842).
T1 construct: The obtained supernatant is used as a chymase enzyme solution; from tissue; host or cells: beagle heart, left ventricle (2.0 M KCl / 1% Triton X-100 extract)
T1 sequence (P21842 22-249): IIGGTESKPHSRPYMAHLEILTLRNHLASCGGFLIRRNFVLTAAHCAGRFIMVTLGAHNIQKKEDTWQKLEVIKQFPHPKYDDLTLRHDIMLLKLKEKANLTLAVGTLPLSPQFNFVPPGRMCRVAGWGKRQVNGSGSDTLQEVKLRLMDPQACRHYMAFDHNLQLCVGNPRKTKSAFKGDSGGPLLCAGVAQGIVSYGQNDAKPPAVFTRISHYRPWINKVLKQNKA
Briefly: Chymase inhibitory effect (liberation of His-Leu from angiotensin I, fluorescence). To be noted: substrate angiotensin I; 37° C., one hour; pH 8 reaction buffer; read-out: IC50 (concentration required to inhibit the chymase enzymatic activity by 50%). Format: biochemical. From the text:
Chymase (enzyme) causes angiotensin I (substrate) to liberate a dipeptide (His-Leu) by the enzyme reaction with the substrate. It was reported that an enzymatic activity of chymase can be measured by measuring fluorescence intensity of the resulting peptide (Biochem. Biophys. Res. Com., 149 (3) 1186 (1987)). Since drugs having chymase inhibitory activities suppress this liberation of the dipeptide, the chymase inhibitory activities of the drugs can be measured by measuring fluorescence intensity. In the present pharmacological test, chymase inhibitory effects of the present compounds were studied by using chymase extracted from a dog cardiac tissue (J. Biol. Chem., 265 (36), 22348 (1990)).
• 1. A beagle is killed by drawing blood under Nembutal anesthesia, a heart is enucleated, and left ventricle is separated. • 2. This left ventricle is finely minced, and the tissue weight is measured. • 3. A 0.02 M Tris-HCl buffer (pH 7.4) is added to the tissue in an amount of 10 times by volume the tissue weight. The obtained mixture is homogenized at 8,000 rpm for 20 seconds and then centrifuged at 4° C. and 21,000 rpm for 30 minutes, and the resulting supernatant is discarded. • 4. The same procedure as the above 3 is repeated twice for the residue. Then, a 0.02 M Tris-HCl buffer (pH 7.4) containing 1% Triton X-100 and 0.01 M potassium chloride is added to the residue in an amount of 10 times by volume the amount of the residue. The obtained mixture is homogenized at 8,000 rpm for 20 seconds, then incubated at 4° C. for one hour and centrifuged at 21,000 rpm for 30 minutes, and the supernatant is discarded. • 5. A 0.02 M Tris-HCl buffer (pH 7.4) containing 1% Triton X-100 and 0.5 M potassium chloride is added to the residue in an amount of 10 times by volume the amount of the residue. The obtained mixture is homogenized at 8,000 rpm for 20 seconds, then incubated at 4° C. for one hour and centrifuged at 21,000 rpm for 30 minutes, and the supernatant is discarded. • 6. A 0.02 M Tris-HCl buffer (pH 7.4) containing 1% Triton X-100 and 2.0 M potassium chloride is added to the residue in an amount of 10 times the amount of the residue. The obtained mixture is homogenized at 8,000 rpm for 20 seconds, then incubated at 4° C. for one hour and centrifuged at 21,000 rpm for 30 minutes. The obtained supernatant is used as a chymase enzyme solution. [2. Preparation of Reaction Buffer]
Tris-HCl and disodium ethylenediaminetetraacetate are dissolved in water so that their concentrations are 92.3 mM and 12.0 mM respectively to prepare a reaction buffer adjusted to pH 8.
Angiotensin I is dissolved in water to prepare a 1.54 mM substrate solution.
A test compound is dissolved in dimethyl sulfoxide to prepare 3.0×10^−3M, 3.0×10^−4 M, 3.0×10^−5 M and 3.0×10^−6 M test compound solutions.
• 1. The reaction buffer (32.5 μl), the substrate solution (75.0 μl), the chymase enzyme solution (37.5 μl) and the test compound solution (5 μl) are mixed. • 2. The obtained mixture is incubated at 37° C. for one hour. • 3. To the mixture is added 15% trichloroacetic acid (225 μl), and the whole is centrifuged at 4° C. and 14,000 rpm for five minutes. • 4. The supernatant is taken out. A 1% orthophthalaldehyde/methanol solution (165 μl) is added to 300 μl of this supernatant, and the whole is stirred and allowed to stand at room temperature for 10 minutes. • 5. 1.5 M Hydrochloric acid (300 μl) is added to the resulting mixture, and the whole is stirred and centrifuged at 4° C. and 14,000 rpm for two minutes. • 6. The supernatant is taken out and irradiated with light having a wavelength of 340 nm, and fluorescence intensity is measured at a wavelength of 455 nm.
The blank of this test is defined as follows. […]

pIC50: −log10 of the molar value.

What is called melting point is the temperature, or range, at which the solid turns liquid.

For `CC(C)OC(=O)C(=O)[C@H](Cc1ccccc1)NC(=O)CN1C(=O)C(C(C)C)N(C(=O)c2ccncc2)C=C1c1ccccc1` (mixture of isomers) [Compound No. 2-32, Isopropyl (3S)-3-{(3RS)-3-isopropyl-2-oxo-6-phenyl-4-(4-pyridylcarbonyl)-1,2,3,4-tetrahydropyrazin-1-yl}methylcarbonylamino-2-oxo-4-phenylbutyrate], in series [1], the pIC50 was 6.44. Regarding `CC(=O)N1C=C(c2ccccc2)N(CC(=O)NC(Cc2ccccc2)C(=O)C(F)(F)F)C(=O)C1C(C)C` (racemic) [Compound No. 4-1, (3RS)-3-{(3RS)-4-Acetyl-3-isopropyl-2-oxo-6-phenyl-1,2,3,4-tetrahydropyrazin-1-yl}methylcarbonylamino-2-oxo-4-phenyl-1,1,1-trifluorobutane], in series [1], the pIC50 is 5.82. As to `CC(C)OC(=O)C(=O)[C@H](Cc1ccccc1)NC(=O)CN1C(=O)C(C(C)C)SC=C1c1ccccc1` (mixture of isomers) [Compound No. 2-63, Isopropyl (3S)-3-{(2RS)-2-isopropyl-3-oxo-5-phenyl-3,4-dihydro-2H-1,4-thiazin-4-yl}methylcarbonylamino-2-oxo-4-phenylbutyrate], the pIC50 in series [1] was 6.49. Still for that read-out and setting: to `CC(=O)N1C=C(c2ccccc2)N(CC(=O)N[C@@H](Cc2ccccc2)C(=O)C2=NCCO2)C(=O)C1C(C)C` (mixture of isomers) [Compound No. 2-47, (2S)-2-{(3RS)-4-Acetyl-3-isopropyl-2-oxo-6-phenyl-1,2,3,4-tetrahydropyrazin-1-yl}methylcarbonylamino-1-(4,5-dihydro-1,3-oxazol-2-yl)-1-oxo-3-phenylpropane] belongs 6.30. The compound `CC(C)[C@@H]1C(=O)N(CC(=O)N[C@@H](Cc2ccccc2)C(=O)C2=NCC(C)(C)S2)C(c2ccccc2)=CN1C(=O)c1ccncc1` [Compound No. 10-10, (2S)-1-(5,5-Dimethyl-4,5-dihydro-1,3-thiazol-2-yl)-2-{(3R)-3-isopropyl-2-oxo-6-phenyl-4-(4-pyridylcarbonyl)-1,2,3,4-tetrahydropyrazin-1-yl}methylcarbonylamino-1-oxo-3-phenylpropane] displayed a melting point of 100 to 125 °C. Consider `CC(C)OC(=O)C(=O)[C@H](Cc1ccccc1)NC(=O)CN1C(=O)C(C(C)C)N(C(=O)c2cccnc2)C=C1c1ccccc1` (mixture of isomers) [Compound No. 2-31, Isopropyl (3S)-3-{(3RS)-3-isopropyl-2-oxo-6-phenyl-4-(3-pyridylcarbonyl)-1,2,3,4-tetrahydropyrazin-1-yl}methylcarbonylamino-2-oxo-4-phenylbutyrate], for which, in series [1], the pIC50 is 6.68.

`CC(=O)N1C=C(c2ccccc2)N(CC(=O)N[C@@H](Cc2ccccc2)C(=O)c2nc3ccccc3s2)C(=O)C1C(C)C` (mixture of isomers) [Compound No. 2-46, (2S)-2-{(3RS)-4-Acetyl-3-isopropyl-2-oxo-6-phenyl-1,2,3,4-tetrahydropyrazin-1-yl}methylcarbonylamino-1-(1,3-benzothiazol-2-yl)-1-oxo-3-phenylpropane]: in series [1], the pIC50 was 5.42. With `CC(C)C1C(=O)N(CC(=O)N[C@@H](Cc2ccccc2)C(=O)C2=NC(C)(C)CO2)C(c2ccccc2)=CN1C(=O)c1ccccc1` (mixture of isomers) [Compound No. 10-7, (2S)-2-{(3RS)-4-Benzoyl-3-isopropyl-2-oxo-6-phenyl-1,2,3,4-tetrahydropyrazin-1-yl}methylcarbonylamino-1-(4,4-dimethyl-4,5-dihydro-1,3-oxazol-2-yl)-1-oxo-3-phenylpropane], in series [1], the pIC50 is 6.43. Take `CC(C)[C@@H]1C(=O)N(CC(=O)N[C@@H](Cc2ccccc2)C(=O)C2=NC(C)(C)CO2)C(c2ccccc2)=CN1C(=O)c1ccc[n+](Cc2ccccc2)c1.[Br-]` [Compound No. 21-3, 1-Benzyl-3-[(2R)-4-{(1S)-1-benzyl-2-(4,4-dimethyl-4,5-dihydro-1,3-oxazol-2-yl)-2-oxoethylcarbamoylmethyl}-2-isopropyl-3-oxo-5-phenyl-1,2,3,4-tetrahydro-1-pyrazinylcarbonyl]pyridinium bromide]: the melting point was 135 to 150 °C. Turning to `CC(C)OC(=O)C(=O)[C@H](Cc1ccccc1)NC(=O)CN1C(=O)[C@@H](C(C)C)N(C(=O)c2ccccc2)C=C1c1ccccc1` [Compound No. 2-22, Isopropyl (3S)-3-{(3R)-4-benzoyl-3-isopropyl-2-oxo-6-phenyl-1,2,3,4-tetrahydropyrazin-1-yl}methylcarbonylamino-2-oxo-4-phenylbutyrate], the pIC50 in series [1] was 6.70. As for `CC(C)OC(=O)C(=O)[C@H](Cc1ccccc1)NC(=O)CN1C(=O)C(C(C)C)N(S(=O)(=O)c2ccccc2)C=C1c1ccccc1` (mixture of isomers) [Compound No. 2-34, Isopropyl (3S)-3-{(3RS)-4-benzenesulfonyl-3-isopropyl-2-oxo-6-phenyl-1,2,3,4-tetrahydropyrazin-1-yl}methylcarbonylamino-2-oxo-4-phenylbutyrate], in series [1], the pIC50 is 6.60. `CC(C)[C@@H]1C(=O)N(CC(=O)N[C@@H](Cc2ccccc2)C(=O)C2=NC(C)(C)CO2)C(c2ccccc2)=CN1C(=O)c1cc[n+](CC(N)=O)cc1.[I-]` [Compound No. 21-12, 4-{(2R)-4-[(1S)-1-Benzyl-2-(4,4-dimethyl-4,5-dihydro-1,3-oxazol-2-yl)-2-oxoethylcarbamoylmethyl]-2-isopropyl-3-oxo-5-phenyl-1,2,3,4-tetrahydro-1-pyrazinylcarbonyl}-1-(carbamoylmethyl)pyridinium iodide]: the melting point lay in the range of 78 to 85 °C. In turn, `CC(C)[C@@H]1C(=O)N(CC(=O)N[C@@H](Cc2ccccc2)C(=O)C2=NC(C)(C)CO2)C(c2ccccc2)=CN1C(=O)c1ccc[n+](CC(N)=O)c1.[Br-]` gave a melting point of 110 °C. Regarding `CC(=O)N1C=C(c2ccccc2)N(CC(=O)N[C@@H](Cc2ccccc2)C(=O)C2=NCCS2)C(=O)C1C(C)C` (mixture of isomers) [Compound No. 2-48, (2S)-2-{(3RS)-4-Acetyl-3-isopropyl-2-oxo-6-phenyl-1,2,3,4-tetrahydropyrazin-1-yl}methylcarbonylamino-1-(4,5-dihydro-1,3-thiazol-2-yl)-1-oxo-3-phenylpropane], the pIC50 in series [1] is 5.92. For `COc1ccc(C2=CSC(C(C)C)C(=O)N2CC(=O)N[C@@H](Cc2ccccc2)C(=O)C(=O)OC(C)C)cc1` (mixture of isomers) [Compound No. 2-65, Isopropyl (3S)-3-{(2RS)-2-isopropyl-5-(4-methoxyphenyl)-3-oxo-3,4-dihydro-2H-1,4-thiazin-4-yl}methylcarbonylamino-2-oxo-4-phenylbutyrate], in series [1], the pIC50 was 6.55.
